Test results taken from article PMC10577379, “Isolation of anticancer bioactive secondary metabolites from the sponge-derived endophytic fungi Penicillium sp. and in-silico computational docking approach” (Frontiers in Microbiology, 2023).
In brackets after ≈: the same amount, converted by molar mass. Entries after “also recorded” stand apart in the source; their conditions may differ. Where two headings read alike, the source gives them in different places.

Legend:
A549 = assay: Cytotoxicity, Cell Counting Kit (CCK-8); type: cell-based; details: Homo sapiens, CCK-8, mean ± SD, n = 3, unit from b62 and Table S1 title (there headed MIC)
Experimental: (§1) Cytotoxicity was assessed using the Cell Counting Kit (CCK-8) (Dojindo, Japan) method adopted by Wang et al. ([2015a]). Cancer cell lines used in this study included K562, MCF-7, A549, HuH-7, H1975, HeLa, HL7702, DU145, HL60, MOLT-4. Additionally, a normal cell line, MCF10A, was included. All cell lines were procured from Shanghai Cell Bank, Chinese Academy of Sciences. Cells were routinely grown and maintained in RPMI or DMEM media with 10% Fetal Bovine Serum and 1% penicillin/streptomycin. Various concentrations of seven isolated compounds from Penicillium sp. were dissolved in 100% DMSO with a maximum concentration of 200 μg/mL and serially diluted to a final 0.1% DMSO concentration to treat cells for […]. Taxol was used as a positive control, and DMSO was used as a negative control. Cytotoxicity screening assay experiments were conducted in triplicate to obtain the standard error ± mean value. The percentage of cytotoxicity (IC50) alongside the selectivity index was then calculated using the formula:
(§2) IC50=(absorbance of the cell without treatment -absorbance of cells with treatment/ absorbance of the cell without treatment)× 100
(§3) Selective index (SI)=CC50value for normal cells/IC50for cancer cells

DU145 = assay: Cytotoxicity, Cell Counting Kit (CCK-8); type: cell-based; details: Homo sapiens, DU-145; CCK-8, mean ± SD, n = 3; unit from b62 and Table S1 title (there headed MIC)
Experimental: as §1, §2, §3

H1975 = assay: Cytotoxicity, Cell Counting Kit (CCK-8); type: cell-based; details: Homo sapiens, NCI-H1975; CCK-8, mean ± SD, n = 3; unit from b62 and Table S1 title (there headed MIC)
Experimental: as §1, §2, §3

HL7702 = assay: Cytotoxicity, Cell Counting Kit (CCK-8); type: cell-based; details: Homo sapiens, L02; CCK-8, mean ± SD, n = 3; unit from b62 and Table S1 title (there headed MIC)
Experimental: as §1, §2, §3

HeLa = assay: Cytotoxicity, Cell Counting Kit (CCK-8); type: cell-based; details: Homo sapiens, CCK-8, mean ± SD, n = 3, unit from b62 and Table S1 title (there headed MIC)
Experimental: as §1, §2, §3

Huh-7 = assay: Cytotoxicity, Cell Counting Kit (CCK-8); type: cell-based; details: Homo sapiens, CCK-8, mean ± SD, n = 3, unit from b62 and Table S1 title (there headed MIC)
Experimental: as §1, §2, §3

K562 = assay: Cytotoxicity, Cell Counting Kit (CCK-8); type: cell-based; details: Homo sapiens, CCK-8, mean ± SD, n = 3, unit from b62 and Table S1 title (there headed MIC)
Experimental: as §1, §2, §3

MCF-7 = assay: Cytotoxicity, Cell Counting Kit (CCK-8); type: cell-based; details: Homo sapiens, MCF7; CCK-8, mean ± SD, n = 3; unit from b62 and Table S1 title (there headed MIC)
Experimental: as §1, §2, §3

MOLT-4 = assay: Cytotoxicity, Cell Counting Kit (CCK-8); type: cell-based; details: Homo sapiens, CCK-8, mean ± SD, n = 3, unit from b62 and Table S1 title (there headed MIC)
Experimental: as §1, §2, §3

HL60 cells = assay: Cytotoxicity, Cell Counting Kit (CCK-8); type: cell-based, human; details: for IC50: Homo sapiens; for anticancer activity toward HL60 cells: in words
Experimental: as §1, §2, §3

MCF-10A = assay: Cytotoxicity, Cell Counting Kit (CCK-8), normal cell line; type: cell-based; details: Homo sapiens, CCK-8, n = 3, unit from Table S1 title
Experimental: as §1, §2, §3

cancer cell lines = assay: Anticancer screening, whole cell line panel; type: cell-based; details: in-vitro screening, tested cell lines, in words
Experimental: as §1, §2, §3

[1] = test system: Mycobacterium tuberculosis H37Ra (ATCC 25177); assay: Anti-tuberculosis assay (MIC); type: cell-based; details: M. tuberculosis H37Ra, read-out: Antitubercular activity MIC
Experimental: The H37Ra strain of Mycobacterium tuberculosis (ATCC 25177) purchased from the American Type Culture Collection (ATCC) was used in the anti-TB bioassay. The anti-tuberculosis assay was based on the one used by Wang et al. ([2015b]). INH (Isoniazid) was used as the positive control, and DMSO was used as a negative control. For the minimum inhibitory concentration (MIC) analysis, 100 μl of Mycobacterium suspension was prepared in a 96-well microtiter plate. A total of […] of double serial dilution of various concentrations of 7 isolated compounds (from 0.08 to 20 μg/mL) alongside the positive control isoniazid (1 to 417 μg/mL) was added to the well.

K562 cell lines = test system: K562 cell lines; design: method as in Hong et al., 2007; details: averufin from Penicillium flavidorsum SHK1-27; ref Hong et al., 2007; cited from earlier work
SGC-7901 cell line = test system: SGC-7901 cell line; design: method as in Yang et al., 2009; details: in words; ref Yang et al., 2009; cited from earlier work
[2] = test system: Staphylococcus aureus (CGMCC 1.230); assay: Antimicrobial assay (MIC); type: cell-based; details: CGMCC1, 37°C, 24 h, read-out: MIC S. aureus
[3] = test system: Escherichia coli (CGMCC 1.2385); assay: Antimicrobial assay (MIC); type: cell-based; details: CGMCC1, 37°C, 24 h
[4] = HL-60, CCK-8, mean ± SD, n = 3, unit from b62 and Table S1 title (there headed MIC), read-out: IC50 HL60

SMILES	IC50 (A549)	IC50 (DU145)	IC50 (H1975)	IC50 (HL7702)	IC50 (HeLa)	IC50 (Huh-7)	IC50 (K562)	IC50 (MCF-7)	IC50 (MOLT-4)	IC50 (HL60 cells; [4])	IC50 (MCF-10A)	MIC [1]	also measured
CC12CCCC(O1)c1c(cc3c(c1O)C(=O)c1c(O)cc(O)cc1C3=O)O2 (stereo not drawn) [Compound 1, averufin]	76.1 ± 0.01 µM	91.2 ± 0.01 µM	8.64 ± 0.01 µM	3.57 ± 0.01 µM	8.11 ± 0.01 µM	3.13 ± 0.01 µM	17.4 ± 0.01 µM	6.71 ± 0.01 µM	5.77 ± 0.01 µM	1 µM	≥ 50 µM	> 50 µM	IC50 (HL60 cells; HL-60, read-out: IC50 concentration, HL60 cell lines): 1 µM; anticancer activity toward HL60 cells (HL60 cells): strong anticancer activity; anticancer effect against cancer cell lines (cancer cell lines): significant anticancer effect; MIC, antitumor activity toward K562 cell lines (K562 cell lines): 72.4 µM (≈ 26.7 µg/mL)
CCCCC[C@@H](c1ccc(Oc2cc(C)cc(O)c2)cc1)c1c(O)cc2c(c1O)C(=O)c1cc(O)cc(O)c1C2=O [Compound 2, aspergilol-A]	–	–	–	–	–	–	–	–	–	–	–	> 50 µM	–
COC(=O)c1cc(O)cc(OC)c1C(=O)c1c(O)cc(C)cc1O [Compound 3, sulochrin]	–	–	–	–	–	–	–	–	–	–	–	> 50 µM	–
COc1cc(O)cc2c1C(=O)c1c(O)cc(C)cc1C2=O [Compound 5, methyl emodin]	81.3 ± 0.01 µM	101.4 ± 0.01 µM	43.5 ± 0.01 µM	67.2 ± 0.01 µM	24.9 ± 0.01 µM	25.1 ± 0.01 µM	16.3 ± 0.01 µM	54.3 ± 0.01 µM	13.6 ± 0.01 µM	13.2 ± 0.01 µM	≥ 50 µM	> 50 µM	anticancer activity toward HL60 cells (HL60 cells): moderate activity; anticancer effect against cancer cell lines (cancer cell lines): significant anticancer effect; also recorded: weak anticancer effect; anticancer effect against the SGC-7901 cell line (SGC-7901 cell line): moderate anticancer effect
Cc1cc(O)cc(Oc2cc(C)cc(O)c2)c1 [Compound 7, diorcinol]	–	–	–	–	–	–	–	–	–	–	–	> 50 µM	–
NNC(=O)c1ccncc1 [INH, Isoniazid, reference compound]	–	–	–	–	–	–	–	–	–	–	–	3.98 µM (≈ 0.546 µg/mL)	–
CC(=O)O[C@H]1C(=O)[C@@]2(C)[C@H]([C@H](OC(=O)c3ccccc3)[C@]3(O)C[C@H](OC(=O)[C@H](O)[C@@H](NC(=O)c4ccccc4)c4ccccc4)C(C)=C1C3(C)C)[C@]1(OC(C)=O)CO[C@@H]1C[C@@H]2O [Taxol, reference compound]	0.024 ± 0.01 µM	0.015 ± 0.01 µM	0.014 ± 0.01 µM	0.003 µM	0.003 µM	0.003 µM	0.003 µM	0.002 µM	0.003 µM	0.002 µM	≥ 50 µM	–	–
O=C(O)c1cn(C2CC2)c2cc(N3CCNCC3)c(F)cc2c1=O [ciprofloxacin, Ciprofloxacin]	–	–	–	–	–	–	–	–	–	–	–	–	MIC [2]: 2.96 µM (≈ 0.981 µg/mL); MIC [3]: 0.19 µM (≈ 0.063 µg/mL)
